Consider nine molecules from US7795267B2, “Bicyclic piperazine compound having TGR23 antagonistic activity” (Takeda Pharmaceutical Company Limited, priority 2003, dated 2010).

The subject of test [1] is human colon cancer cell strain LS 174T. In words: Inhibition of DNA synthesis by cancer cells ([methyl-3H]-thymidine uptake under TGR23 ligand stimulation). The test is classed as cell-based. To be noted: LS174T, LS 174T cells, 10 nM TGR23 ligand, read-out: IC50 value of the test compound in DNA synthesis. Here is the method:
The cells of human colon cancer cell strain LS 174T (ATCC number: CL-188) were inoculated to a 96-well plate to a concentration of 20,000 cells per well, and then incubated in an EMEM medium (Nikken Biology and Medical Research Center) containing 0.05% bovine serum albumin not containing fatty acids (Sigma Chemical Co.) for 24 hours. After the 15-minute preincubation of these cells with the test compound, the cells were incubated in the presence of 10 nM of a TGR23 ligand [a human TGR23-2 ligand (1-20) represented by SEQ ID NO: 23 in WO 03/25179 was used] for 18 hours. Next, the cells were incubated in the presence of 0.25 μCi of [methyl-^3H]-thymidine (Amersham Biosciences KK) per well for 6 hours. The [methyl-^3H]-thymidine incorporated into the cancer cell DNA was measured in the following manner. After discarding the culture supernatant, 100 μL of ice-cold 10% trichloroacetic acid per well was added to the cells having taken up [methyl-^3H]-thymidine, and the cells were maintained on ice for 15 minutes. After discarding the trichloroacetic acid solution, 300 μL of a 0.2 N sodium hydroxide solution per well was added to the immobilized cells, and then the cells were kept warm overnight at 37° C. The amount of [methyl-^3H]-thymidine in the cell lysate was measured with a liquid scintillation counter.
The rate of DNA synthesis inhibition by the test compound was defined as the relative value obtained by subtracting the amount of [methyl-^3H]-thymidine uptake determined without stimulation from the uptake amount determined in the presence of the test compound and 10 nM of the TGR23 ligand, when the value obtained by subtracting the amount of [methyl-^3H]-thymidine uptake determined without stimulation from the uptake amount determined in the presence of the stimulation by 10 nM of the TGR23 ligand was taken as 100%. The IC50 value of the test compound in DNA synthesis was defined as the concentration of the test compound required to achieve 50% of the DNA synthesis inhibition rate.

Test [2] shares this test system. The experiment in a line: Cell growth inhibition (MTT method, TGR23 ligand stimulation). In kind it is cell-based. Particulars: LS174T, LS 174T cells, 10 nM TGR23 ligand, 24 hours, read-out: IC50 value of the test compound for cell growth. As for the experimental part: The cells of human colon cancer cell strain LS 174T (ATCC number: CL-188) were inoculated in a 96-well plate to a concentration of 40,000 cells per well, and then the cells were incubated for 24 hours in an EMEM medium containing 0.05% bovine serum albumin not containing fatty acids. After a 15-minute pretreatment of these cells with the test compound, LS 174T cells were incubated for 24 hours in the presence of 10 nM of a TGR23 ligand [a human TGR23-2 ligand (1-20) represented by SEQ ID NO: 23 in WO 03/25179 was used]. Cell growth was evaluated by the MTT method. Cells were lysed by keeping them warm in an MTT solution (3-(4,5-dimethylthiazol-2-yl)-2,5-diphenyl tetrazolium bromide) at a final concentration of 0.5 mg/mL at 37° C. for 4 hours, and then in a 5% SDS solution at 37° C. for 24 hours. The absorbance of the cell lysate was measured using a 96-well plate reader. […]
The cell growth inhibitory rate of the test compound was defined as the relative value obtained by subtracting the absorbance change determined without stimulation from the absorbance change determined in the presence of the test compound and 10 nM of the TGR23 ligand, when the value obtained by subtracting the absorbance change determined without stimulation from the absorbance change determined in the presence of stimulation by 10 nM of the TGR23 ligand was taken as 100%. […]
Background: Formazan colour is commonly taken as a measure of viable cells.

The structures appear in SMILES notation. pIC50: −log10 of the molar value.

In the case of `O=C(NCc1cccc(F)c1)N1CCN2C(=O)OC(c3ccccc3)(c3ccccc3)C2C1` (centres unmarked) [Example 28, N-[(3-Fluorophenyl)methyl]-tetrahydro-3-oxo-1,1-diphenyl-3H-oxazolo[3,4-a]pyrazine-7(1H)-carboxamide], the pIC50 (commonly the negative decadic logarithm of the IC50, by convention in mol/L) in test [1] was not below 6.00.
Same read-out and setting: under `O=C(NCc1ccc(F)c(F)c1)N1CCN2C(=O)OC(c3ccccc3)(c3ccccc3)C2C1` (centres unmarked) [Example 97, N-[(3,4-Difluorophenyl)methyl]-tetrahydro-3-oxo-1,1-diphenyl-3H-oxazolo[3,4-a]pyrazine-7(1H)-carboxamide] stands not below 6.00.
In the case of `O=C(NCc1ccccc1)N1CCN2C(=O)OC(c3ccccc3)(c3ccccc3)C2C1` (centres unmarked) [Example 17, Tetrahydro-3-oxo-1,1-diphenyl-N-(phenylmethyl)-3H-oxazolo[3,4-a]pyrazine-7(1H)-carboxamide], the pIC50 in test [1] and in test [2] was not below 6.00 each time.
With `O=C(NCc1ccsc1)N1CCN2C(=O)OC(c3ccccc3)(c3ccccc3)C2C1` (centres unmarked) [Example 96, Tetrahydro-3-oxo-1,1-diphenyl-N-[(3-thienyl)methyl]-3H-oxazolo[3,4-a]pyrazine-7(1H)-carboxamide], in test [1], the pIC50 is not below 6.00.
Consider `O=C(NCc1ccc(F)cc1)N1CCN2C(=O)OC(c3ccccc3)(c3ccccc3)C2C1` (centres unmarked) [Example 25, N-[(4-Fluorophenyl)methyl]-tetrahydro-3-oxo-1,1-diphenyl-3H-oxazolo[3,4-a]pyrazine-7(1H)-carboxamide], for which the pIC50 in test [1] and in test [2] was not below 6.00 throughout.
Regarding `O=C(NCCN1CC=CCC1)N1CCN2C(=O)OC(c3ccccc3)(c3ccccc3)C2C1` (single isomer, unassigned; (+)) [Example 201, (+)-N-[2-(3,6-Dihydropyridin-1(2H)-yl)ethyl]-tetrahydro-3-oxo-1,1-diphenyl-3H-oxazolo[3,4-a]pyrazine-7(1H)-carboxamide], the pIC50 in test [1] was not below 6.00.
Still for that read-out and setting: to `O=C(NCCN1CCCCCC1)N1CCN2C(=O)OC(c3ccccc3)(c3ccccc3)C2C1` (centres unmarked) [Example 147, N-[2-(Hexahydro-1H-azepin-1-yl)ethyl]tetrahydro-3-oxo-1,1-diphenyl-3H-oxazolo[3,4-a]pyrazine-7(1H)-carboxamide] belongs not below 6.00; to `O=C(NCCN1CC=CCC1)N1CCN2C(=O)OC(c3ccccc3)(c3ccccc3)C2C1` (centres unmarked) [Example 85, N-[2-(3,6-Dihydropyridin-1(2H)-yl)ethyl]-tetrahydro-3-oxo-1,1-diphenyl-3H-oxazolo[3,4-a]pyrazine-7(1H)-carboxamide], not below 6.00.
The same measure, in the same setting: under `O=C(CCCN1CC=CCC1)N1CCN2C(=O)OC(c3ccccc3)(c3ccccc3)C2C1` (centres unmarked) [Example 138, 7-[4-(3,6-Dihydropyridin-1(2H)-yl)-1-oxobutyl]-hexahydro-1,1-diphenyl-3H-oxazolo[3,4-a]pyrazin-7(1H)-3-one] stands not below 6.00.
